Results published in article PMC8868518, “Exploring Titanium(IV) Complexes as Potential Antimicrobial Compounds” (Antibiotics, 2022).
Where a name gives a salt, the structure may show the parent alone. Read-outs that look alike come from different tables or passages of the source.

Tests used:
[1] = system: K. pneumoniae (ATCC 700603); assay: CO-ADD antibacterial assay, growth inhibition (OD600); format: cell-based, Klebsiella pneumoniae; settings: up to 32 μg/mL; for MIC / Dmax: Klebsiella pneumoniae, ATCC700603; for Dmax: read-out: Dmax K. pneumoniae, maximum % inhibition
Procedure: (§1) Dry compounds ranging from 1–2 mg were weighed into properly labeled Eppendorf tubes and sealed with parafilm. The compounds were used as received by the CO-ADD. For the screenings, most compounds were dissolved to a stock concentration of 10 mg/mL in DMSO. K2[Ti(Citrate)3], Na3Citrate, and K2[TiO(Oxalate)2] were dissolved in warm water. […] Samples were diluted in water to a final testing concentration of 32 µg/mL while keeping the final co-solvent concentration to a maximum of 0.5%. Where applicable, compounds were serially diluted 1:2 fold eight times. Each sample concentration was prepared in 384-well plates, non-binding surface plate (NBS; Corning 3640) for each bacterial/fungal strain, tissue-culture treated (TC-treated; Corning 3712/3764), black for mammalian cell types and polypropylene 384-well (PP; Corning 3657) for hemolysis assays, all in duplicate (n = 2), and keeping the final DMSO concentration to a maximum of 0.5%. All sample preparation was conducted using liquid handling robots.
(§2) For the bacterial assays, four Gram-negative bacteria (E. coli (ATCC 25922, Manassas, VA, USA); K. pneumoniae (ATCC 700603), A. baumannii; (ATCC 19606), and P. aeruginosa (ATCC 27853) and the Gram-positive bacteria (S. aureus MRSA (ATCC 43300) were used. Each strain was cultured in cation-adjusted Mueller Hinton broth (CAMHB; Bacto Laboratories 212322, Mount Pritchard, Australia) at 37 °C overnight. A sample of each culture was then diluted 40-fold in fresh CAMHB and incubated at 37 °C for 1.5–3 h. The resultant mid-log phase cultures were diluted with CAMHB (CFU/mL measured by OD600), then added to each well of the compound-containing plates (384-well non-binding surface (NBS) plates; Corning CLS3640, Millipore Sigma, Burlington, MA, USA), giving a cell density of 5 × 10^5 CFU/mL and a total volume of 50 µL. Plates were covered and incubated at 37 °C for 18 h without shaking. Inhibition of bacterial growth was determined by measuring absorbance at 600 nm (OD600) with a Tecan M1000 Pro monochromator plate reader, using media-only as negative control and bacteria without inhibitors as a positive control. […] Colistin sulfate (Sigma C4461) and vancomycin HCl (Sigma 861987) were used as internal controls on each plate for Gram-negative and Gram-positive bacteria, respectively.

[2] = system: P. aeruginosa (ATCC 27853); assay: as above; format: cell-based, Pseudomonas aeruginosa; settings: up to 32 μg/mL; for MIC / Dmax: Pseudomonas aeruginosa, ATCC27853; for Dmax: read-out: Dmax P. aeruginosa, maximum % inhibition
Procedure: as §1, §2

[3] = system: S. aureus MRSA (ATCC 43300); assay: as above; format: cell-based, Staphylococcus aureus; settings: for MIC / Dmax: Staphylococcus aureus; for Dmax: read-out: Dmax S. aureus (MRSA), maximum % inhibition
Procedure: as §1, §2

MRC-5 cells [4] = settings: cited from earlier work; for IC50: read-out: IC50 ± SD
C. albicans (ATCC 90028) = assay: CO-ADD antifungal assay, growth inhibition (OD630); format: cell-based, Candida albicans; settings: up to 32 μg/mL; for MIC / Dmax: Candida albicans, ATCC90028; for Dmax: read-out: Dmax C. albicans, maximum % inhibition
Procedure: (§3) The compounds were used as received by the CO-ADD. For the screenings, most compounds were dissolved to a stock concentration of 10 mg/mL in DMSO. K2[Ti(Citrate)3], Na3Citrate, and K2[TiO(Oxalate)2] were dissolved in warm water. [Cu(Deferasirox)(H2O)]2 was dissolved in pyridine after its solubility was determined to be excellent in pyridine due to coordination of the solvent to the metal producing [Cu(Deferasirox)(pyridine)]2 in situ. […] Each sample concentration was prepared in 384-well plates, non-binding surface plate (NBS; Corning 3640) for each bacterial/fungal strain, tissue-culture treated (TC-treated; Corning 3712/3764), black for mammalian cell types and polypropylene 384-well (PP; […] All sample preparation was conducted using liquid handling robots. For the fungal assays, the fungi (C. albicans (ATCC 90028) and C. neoformans) (ATCC 208821) were used. Both fungi (yeast) strains were cultured for 3 days on Yeast Extract-Peptone Dextrose (YPD; Becton Dickinson 242720, Thermo Fisher Scientific, Waltham, MA, USA) agar at 30 °C. A yeast suspension of 1 × 10^6 to 5 × 10^6 CFU/mL (as determined by OD530) was prepared from five colonies from the agar plates, subsequently diluted with Yeast Nitrogen Base media (YNB; Becton Dickinson 233520, Thermo Fisher Scientific, Waltham, MA, USA), and added to each well of the compound-containing plates (384-well plates, NBS; Corning CLS3640) giving a final cell density of 2.5 × 10^3 CFU/mL and a total volume of 50 μL. Plates were covered and incubated at 35 °C for 36 h without shaking. […] Sigma R7017) and incubation at 35 °C for 2 h, using media-only as a negative control and fungi without inhibitors as a positive control. […] Fluconazole (Sigma F8929) was used as an internal control on each plate for both strains.

[5] = system: A. baumannii (ATCC 19606); assay: CO-ADD antibacterial assay, growth inhibition (OD600); format: cell-based, Acinetobacter baumannii; settings: up to 32 μg/mL; for MIC / Dmax: Acinetobacter baumannii, ATCC19606; for Dmax: read-out: Dmax A. baumannii, maximum % inhibition
Procedure: as §1, §2

[6] = system: C. neoformans (ATCC 208821); assay: CO-ADD antifungal assay, growth inhibition (resazurin, OD600-570); format: cell-based, Cryptococcus neoformans; settings: up to 32 μg/mL; for MIC / Dmax: Cryptococcus neoformans, ATCC208821; for Dmax: read-out: Dmax C. neoformans, maximum % inhibition
Procedure: as §3

[7] = system: HEK293 ATCC CRL-1573 human embryonic kidney cells; assay: CO-ADD cytotoxicity assay (resazurin); format: cell-based; settings: at the maximum concentration tested
Procedure: The compounds were used as received by the CO-ADD. For the screenings, most compounds were dissolved to a stock concentration of 10 mg/mL in DMSO. K2[Ti(Citrate)3], Na3Citrate, and K2[TiO(Oxalate)2] were dissolved in warm water. [Cu(Deferasirox)(H2O)]2 was dissolved in pyridine after its solubility was determined to be excellent in pyridine due to coordination of the solvent to the metal producing [Cu(Deferasirox)(pyridine)]2 in situ. […] Each sample concentration was prepared in 384-well plates, non-binding surface plate (NBS; Corning 3640) for each bacterial/fungal strain, tissue-culture treated (TC-treated; Corning 3712/3764), black for mammalian cell types and polypropylene 384-well (PP; […] All sample preparation was conducted using liquid handling robots. HEK293 ATCC CRL-1573 human embryonic kidney cells were counted manually in a Neubauer hemocytometer and added to compound-containing plates (384-well plates, tissue culture-treated (TC); […] Life Technologies 11995-073) with 10% FBS (GE SH30084.03).

E. coli (ATCC 25922) = assay: CO-ADD antibacterial assay, growth inhibition (OD600); format: cell-based, Escherichia coli; settings: up to 32 μg/mL; for MIC / Dmax: Escherichia coli, ATCC25922; for Dmax: read-out: Dmax E. coli, maximum % inhibition
Procedure: as §1, §2

MRC-5 cells [8] = assay: MRC-5 cell viability, dose-response treatment, MTT assay; format: cell-based, human; settings: MRC-5 cells, MTT, 72 h, pH 7.4, n = 6, this work
Procedure: A thawed stock of MRC-5 cells was washed with 1X PBS and resuspended in phenol red DMEM media (supplemented with 10% FBS and 1% of penicillin-streptomycin) and then seeded in a 100 mm × 20 mm (complete, O.D. x H) petri dish and grown in a 5% (v/v) CO2 humidified atmosphere at 37 °C. At least three passages were performed to ensure the integrity of the cells. After this point, cells were collected, thoroughly washed with 1X PBS, and then resuspended in phenol red-free DMEM (supplemented with 10% FBS, 1% Streptomycin/Penicillin, and 2.4 mM L-glutamine) at a 2.0 × 10^5 cells/mL concentration. Approximately 100 µL of the cell solution was seeded into wells of several 96-well plates to begin the MTT assay, which was performed in the 5% (v/v) CO2 humidified atmosphere at 37 °C. At least one lane of wells in each plate was supplied media without cells as a control. […] Most of the compounds were dissolved in 1X PBS buffer at pH 7.4. […] Titanocene dichloride was prepared as a fresh stock solution in DMSO and then diluted in 0.1 M NaCl (aq) instead of 1X PBS (to minimize hydrolysis induced precipitation) to the desired concentration while maintaining a constant 1% (v/v) DMSO background (0.5% DMSO after mixing with the well media). A control of cells treated with media containing 1% (v/v) DMSO was included in the study. The titanocene solutions were used within an hour of preparation in the final cell solution. […] At 3 h before a total of 72 h of incubation with the compounds, the cells were treated with 25 µL of 9 mg/mL MTT prepared in 1X PBS and sterile-filtered. Upon completion of the three hours, 50 µL of 10% (w/v) SDS (prepared in 0.1 M Tris buffer at pH 11) was added to solubilize the purple formazan product crystals and left overnight in the incubator. Control wells in the plates consisted of: (1) Untreated cells + MTT as the measure of 100% viable cell growth in the media and (2) Media with no cells + MTT as the measure of zero cells in the media. Two sets of compounds could be tested per plate. The plates were read at the wavelength of 570 nm (absorbance of the formazan product at pH 10.0) and 800 nm (background control) using a Tecan plate reader. The absorbance of all wells was compared to the absorbance of the untreated cells with the MTT set as the 100% viable cell standard and the absorbance of the zero cell control set as the 0% viable cell standard. […] Nonlinear regression in Origin 8.5 was utilized to fit the growth curves using the pharmacology dose–response equation to determine the half-maximal inhibitory concentration (IC50) and the corresponding standard deviation. All samples were tested six times.

[9] = predicted or measured MIC, ≥75% growth inhibition
[10] = predicted or measured MIC, lowest concentration with ≥75% growth inhibition, 0.25-32 μg/mL, 18 h
[11] = predicted or measured MIC, ≥75% growth inhibition, 36 h

Compound	MIC [1, 9] [µg/mL]	Dmax [1] [%]	MIC [2, 9] [µg/mL]	Dmax [2] [%]	MIC [3, 10] [µg/mL]	Dmax ([3]; up to 32 μg/mL) [%]	IC50 ± SD (µg/mL) (MRC-5 cells [4])	IC50 (MRC-5 cells [4]) [µM]	MIC (C. albicans (ATCC 90028); [11]) [µg/mL]	Dmax (C. albicans (ATCC 90028)) [%]	MIC [5, 9] [µg/mL]	Dmax [5] [%]	MIC [6, 11] [µg/mL]	Dmax [6] [%]	MIC (E. coli (ATCC 25922); [9]) [µg/mL]	Dmax (E. coli (ATCC 25922)) [%]	also measured
O=C(O)CN(CCN(CC(=O)O)Cc1ccccc1O)Cc1ccccc1O [Compound 5, N,N′-di(o-hydroxybenzyl)ethylenediamine-N,N′-diacetic acid monohydrochloride hydrate, reference compound]	> 32	52.9	> 32	69	> 32	24.3	>>44.3 µg/mL	> 100	> 32	3.5	> 32	68.3	> 32	-17.5	> 32	51.6	inhibition of HEK293 cell proliferation [7]: ~50%
K2[Ti(Citrate)3] [Compound 7]																	MIC K. pneumoniae [1, 9]: >32 µg/mL; Dmax K. pneumoniae, maximum % inhibition [1]: 15.43%; MIC P. aeruginosa [2, 9]: >32 µg/mL; Dmax P. aeruginosa, maximum % inhibition [2]: 7.99%; IC50 ± SD (µg/mL) (MRC-5 cells [8]): >>73.2 µg/mL; IC50 (MRC-5 cells [8]; read-out: IC50 ± SD): > 100 µM; MIC S. aureus (MRSA) [3, 10]: >32 µg/mL; Dmax S. aureus (MRSA), maximum % inhibition ([3]; up to 32 μg/mL): 38.01%; MIC C. albicans (C. albicans (ATCC 90028); [11]): >32 µg/mL; Dmax C. albicans, maximum % inhibition (C. albicans (ATCC 90028)): 44.53%; MIC A. baumannii [5, 9]: >32 µg/mL; Dmax A. baumannii, maximum % inhibition [5]: 17.94%; MIC C. neoformans [6, 11]: >32 µg/mL; Dmax C. neoformans, maximum % inhibition [6]: −7.88%; MIC E. coli (E. coli (ATCC 25922); [9]): >32 µg/mL; Dmax E. coli, maximum % inhibition (E. coli (ATCC 25922)): 10.41%
Oc1ccccc1-c1n[nH]c(-c2ccccc2O)n1 [Compound 3, 2-[3-(2-Hydroxyphenyl)-1H-1,2,4-triazol-5-yl]phenol, reference compound]	> 32	4.11	> 32	10	> 32	-2.34	>>25.3 µg/mL	> 100	> 32	6.23	> 32	-1.93	> 32	-7.23	> 32	-9.07	activity against MRSA (in words) ([3]; CO-ADD screen, 32 μg/mL): inactive
